In assay [1] the target is T1, WT human TP receptor (Homo sapiens, UniProt P21731).
T1 construct: expressed in transfected cells; host or cells: HEK293
T1 sequence (P21731 1-343): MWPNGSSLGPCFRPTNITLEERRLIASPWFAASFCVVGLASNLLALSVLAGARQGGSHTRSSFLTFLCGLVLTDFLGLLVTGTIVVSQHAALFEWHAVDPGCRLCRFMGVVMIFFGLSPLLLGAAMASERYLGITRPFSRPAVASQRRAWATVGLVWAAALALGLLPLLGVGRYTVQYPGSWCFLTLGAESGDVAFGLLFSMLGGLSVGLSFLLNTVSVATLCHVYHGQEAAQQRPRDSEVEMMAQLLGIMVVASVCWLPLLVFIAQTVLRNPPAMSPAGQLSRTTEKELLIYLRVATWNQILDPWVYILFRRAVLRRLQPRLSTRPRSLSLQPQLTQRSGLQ
The assay is described as follows: [3H]SQ29,548 radioligand binding (mixed-type and heterologous competition), WT receptor. The following applies: HEK293 cells, competition vs 1 nM [3H]SQ29,548, 25°C 30 min, value ±%CV. Here is the method:
(§1) Receptor expression and functional activity were monitored 48 hours after transfection. […] Heterologous competition studies involved concentrations of the indicated unlabeled ligands extending from 0.1 nM to 30 µM. After 30 min incubation at 25 °C, the reaction was stopped by aspiration of the medium, cells were washed with ice-cold PBS containing 0.2% (w/v) BSA and lysed in 0.5 N NaOH. Radioactivity was measured by liquid scintillation counting. Binding data were analyzed as described in Data and Statistical Analysis. Quantification of the total labeled inositol phosphates (IP) accumulation was performed using a conventional gravity flow column chromatography, as described previously, [19]. Briefly, the day before the assay, cells were labeled with 0,5 µCi of [myo-2-^3H]inositol (17 Ci/mmol) for 18–20 hours in serum-free, inositol-free DMEM containing 20 mM HEPES buffer, pH 7.4, and 0.5% (w/v) Albumax I. The day of the assay, media was replaced with serum-free, inositol-free DMEM containing 25 mM LiCl and cells stimulated for 30 min with the indicated agonists. After removal of the medium, cells were lysed with 10 mM formic acid and lysates were applied onto an anion exchange AG 1X-8 column, formate form, 200–400 mesh. The total IP fraction was then eluted with 2 M ammonium formate/formic acid buffer at pH 5 and radioactivity determined by liquid scintillation counting. Rescue experiments were performed essentially as above, except for a 18 hours incubation step with 1 µΜof […] followed by its removal by washing three times with ice-cold PBS containing 1 mM MgCl2 and 0.1 mM CaCl2 before starting the experiment.
(§2) All average results are presented as mean±S.E. When indicated, ANOVA followed by post-hoc test for multiple comparisons was performed. Data from radioligand binding were evaluated by a nonlinear, least-squares curve-fitting procedure using GraphPad Prism version 4, implemented with the n-ligand m-binding site model, as described in the LIGAND computer program. Concentration-response curves were evaluated using Prism 4, which use the four parameters logistic model as described in the ALLFIT program. Parameter errors are all expressed in percentage coefficient of variation (%CV) and calculated by simultaneous analysis of at least two different independent experiments performed in duplicate or triplicate. Parameter comparison has been performed on the base of the F test for extra sum of square principle. All curves shown are computer generated.
Thus, transfection conditions were adjusted to secure equivalent levels of receptor expression for WT and mutants as previously described, [17], [19]. […] All the experiments were conducted within this range of receptor expression, if not specified differently.

In assay [2] the target is T1, WT human TP receptor. The assay is described as follows: Total inositol phosphate (IP) accumulation, WT receptor. Format: cell-based. To be noted: HEK293 cells, 30 min stimulation, value ±%CV. The protocol:
as §1, §2

In assay [3] the target is T2, E129V mutant human TP receptor (Homo sapiens, UniProt P21731, E129V).
T2 construct: expressed in transfected cells; host or cells: HEK293
T2 sequence (P21731 1-343 E129V): T1 sequence (P21731 1-343) with E129V
The assay is described as follows: Total inositol phosphate (IP) accumulation, E129V mutant. The following applies: HEK293 cells. The assay is classed as cell-based. The protocol:
as §1, §2

For assay [4], the target named is T1, WT human TP receptor. Put plainly: BRET2 measurement of Gq protein activation, WT receptor. The following applies: HEK293 cells, value ±%CV. The assay is classed as cell-based.
Description: HEK 293 cells were co-transfected with vectors expressing the GFP^10-Gγ2, Gβ1, Gαq-Rluc8 and WT or E129V mutant of TP receptor to investigate direct G protein activation with an intramolecular bioluminescent resonance energy transfer (BRET^2) strategy. To avoid possible variations in the BRET signaling resulting from fluctuation in the relative expression levels of the energy donor and acceptor, we designed transfection conditions to maintain constant GFP^10 and Rluc8 expression and their ratios in each experimental set. Total fluorescence and luminescence were directly determined in an aliquot of the transfected cells using an Infinite F500 microplate reader (Tecan, Milan, Italy) as previously described. […] 48 hours after transfection, cells were washed once with PBS, detached, and resuspended in PBS+0.1% (w/v) glucose at room temperature. Cells were then distributed (80 µg of proteins per well) into a 96-well microplate (Wallac, Perkin Elmer, Monza, Italy) and incubated in the presence or absence of increasing concentrations of ligands for 2 min before the addition of the luciferase substrate Coelenterazine 400a (5 µM; Biotium, Hayward, CA). BRET signal between Rluc8 and GFP^10 was measured immediately after the addition of the Rluc substrate in the microplate reader. The BRET signal was calculated as the ratio of the light emitted by GFP^10 (510–540 nm) over the light emitted by Rluc8 (370–450 nm). The changes in BRET induced by the ligands were expressed as Òagonist-induced BRETÓ, obtained by subtracting the BRET signal detected in the presence of PBS by the BRET signal detected in the presence of the specific ligand.
as §2
This recorded real time conformational changes between the α and the βγ subunits within the Gq protein, where a decrease of the BRET signal provoked by agonist-induced receptor activation is indicative of a conformational reorganization leading the Gα-Gβγ interface to open, reflects the initial event of Gq protein activation, [23] (Figure 6A).

Assay [5] has as its target T2, E129V mutant human TP receptor. Details: method as in PMID 20383734. The following applies: E129V vs WT; cited from earlier work.
Where [6] appears, read: E129V, 30 min stimulation, value ±%CV.

Each structure is given as a SMILES string. Residue numbers refer to the chain shown, from its start.

For orientation: Ki means the equilibrium dissociation constant of an inhibitor or competing ligand from its target. High values mean weaker binding, low ones tighter binding. In general, EC50 refers to the concentration giving half of the maximal effect. Read a low EC50 as higher potency in that assay. As to `CCCCC[C@H](O)/C=C/[C@@H]1[C@@H](C/C=C\CCCC(=O)O)[C@H]2CO[C@@H]1C2` (relative stereo) [U46619, [1R-[1α,4α,5β(Z),6α(1E,3S*)]]-7-[6-(3-hydroxy-1-octenyl)-2-oxabicyclo[2.2.1]hept-5-yl]-5-heptenoic acid], the Ki on WT human TP receptor [1] was 170 ± 13 nM. For the same compound, the “Emax, total IP” value amounted to 12374±8 dpm/well on WT human TP receptor [2] (no Gαq overexpression) and 18115±5 dpm/wel in assay [3] (setting [6]). Further, the EC50 is 98.7 ± 70 nM at WT human TP receptor [2]; 4.47 nM in assay [3] (setting [6]); 345 ± 14 nM at WT human TP receptor [4] (Gαq-Rluc8/GFP10-Gγ2/Gβ1, 2 min ligand). For the same compound, the “Activity ratio (EC50 WT over EC50 E129V), total IP” value in assay [3] (WT vs E129V) worked out at 22.1. Also, the “Emax, agonist-induced BRET” value on WT human TP receptor [4] is −0.07±3. Besides, in assay [5], the “Fold lower EC50 than WT, total IP formation” value is 10 fold.

The values are drawn from article PMC3610872, “Full and Partial Agonists of Thromboxane Prostanoid Receptor Unveil Fine Tuning of Receptor Superactive Conformation and G Protein Activation” (PLoS ONE, 2013).
